According to publication PMC3823594, “Conformational Changes Underlying Pore Dilation in the Cytoplasmic Domain of Mammalian Inward Rectifier K^+ Channels” (PLoS ONE, 2013):
Substitutions are numbered along the chain they refer to.

Tests used:
Assay in all cases: Two-electrode voltage clamp, ACh-dependent (m2R-dependent) K+ current activation
Format in all cases: cell-based
Kir3.2 M313S = target: T1, Kir3.2 M313S (Mus musculus, UniProt P48542, I313S); settings: Kir3.2 M313S with porcine m2R in Xenopus oocytes; −120 mV; Hill equation fit
T1 sequence (P48542 19-425 I313S): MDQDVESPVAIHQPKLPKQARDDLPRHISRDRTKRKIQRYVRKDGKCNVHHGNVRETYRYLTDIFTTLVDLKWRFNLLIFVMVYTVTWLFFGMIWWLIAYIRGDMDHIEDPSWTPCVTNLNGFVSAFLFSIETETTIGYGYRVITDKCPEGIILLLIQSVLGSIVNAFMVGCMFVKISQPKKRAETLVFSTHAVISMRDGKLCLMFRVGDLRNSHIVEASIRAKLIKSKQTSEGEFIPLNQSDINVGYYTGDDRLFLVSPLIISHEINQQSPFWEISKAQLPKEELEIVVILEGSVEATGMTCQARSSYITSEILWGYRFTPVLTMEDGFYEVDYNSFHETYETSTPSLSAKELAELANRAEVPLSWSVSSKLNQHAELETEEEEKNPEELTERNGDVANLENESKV
T1 sequence (P06199 1-466 partner): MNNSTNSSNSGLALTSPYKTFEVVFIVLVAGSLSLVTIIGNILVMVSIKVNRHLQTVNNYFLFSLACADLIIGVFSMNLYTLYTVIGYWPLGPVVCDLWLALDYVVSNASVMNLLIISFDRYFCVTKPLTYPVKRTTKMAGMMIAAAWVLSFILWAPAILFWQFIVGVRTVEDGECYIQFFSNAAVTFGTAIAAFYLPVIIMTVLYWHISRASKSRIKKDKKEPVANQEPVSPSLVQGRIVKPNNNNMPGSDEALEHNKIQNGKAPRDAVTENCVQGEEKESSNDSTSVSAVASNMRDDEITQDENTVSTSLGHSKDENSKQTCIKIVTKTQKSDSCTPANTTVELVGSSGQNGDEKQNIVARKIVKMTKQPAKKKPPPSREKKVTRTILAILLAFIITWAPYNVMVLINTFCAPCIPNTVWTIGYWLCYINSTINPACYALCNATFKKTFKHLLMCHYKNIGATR
Excerpt: (§1) The mouse Kir3.2d isoform was subjected to functional analyses. The amino acid numbers correspond to the longest mouse Kir3.2 isoform. Point mutations were introduced using the QuikChange site-directed mutagenesis kit (Stratagene, La Jolla, CA), and the presence of the mutations was confirmed by direct DNA sequencing. The care of Xenopus laevis was in accordance with the guideline of the Institute of Experimental Animal Sciences, Osaka University. The protocol was approved by the Animal Experiment Committee of Osaka University. The frogs were deeply anesthetized by immersing in 0.2% tricaine methanesulfonate for 20 min at 18°C. A portion of an ovary lobe was surgically removed and incubated with collagenase to remove follicular cells. The oocytes were injected with the cRNAs of Kir3.2 and porcine m2-muscarinic receptor (m2R), and maintained in modified Barth’s solution at 18°C with daily solution changes. Electrophysiological studies were undertaken 48–72 h later at room temperature (20–25°C). Two-electrode voltage-clamp recordings from oocytes were performed using a GeneClamp 500B amplifier (Axon Instruments, Sunnyvale, CA). […] The bath solution contained 40 mM KCl, 50 mM NaCl, 3 mM MgCl2, 0.15 mM niflumic acid, and 5 mM HEPES-KOH (pH 7.4). The currents were recorded in the absence or presence of various concentrations of acetylcholine (ACh). Ba^2+ (3 mM) was added at the end of the recording to estimate the endogenous leak current. The data are expressed as mean values ± standard error of the mean. For the quantitative estimation of ACh-dependent current responses of the wild-type (WT) and mutant channels, the current amplitudes at the end of test pulses at each ACh concentration ([ACh]) were fitted using the following equation:
(§2) I=min+[(max−min)/(1+(EC50/[ACh])^nH)]
(§3) where I is the current amplitude measured at the [ACh], n H is the Hill coefficient, and EC50 is the concentration that induces 50% of the maximal response. […] The values of n H and EC50 were calculated using a non-linear least-squares best fit (SigmaPlot 9; Systat Software). Statistical analyses were performed by one-way ANOVA with post-hoc tests.

Kir3.2 E236S = target: T2, Kir3.2 E236S (Mus musculus, UniProt P48542, E236S); settings: Kir3.2 E236S with porcine m2R in Xenopus oocytes; −120 mV; Hill equation fit
T2 sequence (P48542 19-425 E236S): T1 sequence (P48542 19-425 I313S) with E218S, S295I
T2 sequence (P06199 1-466 partner): T1 sequence (P06199 1-466 partner)
Excerpt: as §1, §2, §3

Kir3.2 E236G = target: T3, Kir3.2 E236G (Mus musculus, UniProt P48542, E236G); settings: Kir3.2 E236G with porcine m2R in Xenopus oocytes; −120 mV; Hill equation fit
T3 sequence (P48542 19-425 E236G): T1 sequence (P48542 19-425 I313S) with E218G, S295I
T3 sequence (P06199 1-466 partner): T1 sequence (P06199 1-466 partner)
Excerpt: as §1, §2, §3

CC(=O)OCC[N+](C)(C)C [ACh, acetylcholine]
Hill coefficient (Kir3.2 M313S): 1.04 ± 0.05
Hill coefficient (Kir3.2 E236S): 0.86 ± 0.07
Hill coefficient (Kir3.2 E236G): 1.10 ± 0.04
